In patent publication USRE42890E1, “Furazanobenzimidazoles” (Basilea Pharmaceutica AG, priority 2003, dated 2011):
Like-named read-outs stand apart in the source and are kept apart here.

Legend:
[1] = test system: HeLa; assay: MTS proliferation assay, HeLa; type: cell-based, human; details: 72 h incubation, read-out: MTS proliferation assay IC 50 HeLa
Summary of the method: (§1)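 Absorbance at 492 nm after 3 h with MTS reagent gave proliferation. This followed 72 h compound exposure (final 0.3, 1, 3, 10 μM) at 37 °C and 7.5% CO2. Cells had been plated 24 h earlier in complete RPMI-1640 with 5% or 10% FCS.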

[2] = test system: MRC5; assay: MTS proliferation assay, MRC5; type: cell-based; details: MRC5, 72 h incubation, read-out: MTS proliferation assay IC 50 MRC5
Summary of the method: (§2)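 Antiproliferative read-out by MTS (3 h, A492) after 72 h compound exposure at final 0.3–10 μM (four concentrations). Cells were plated 24 h earlier in RPMI-1640 containing 5% or 10% FCS, cultured at 37 °C with 7.5% CO2.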

[3] = test system: HT1080; assay: MTS proliferation assay, HT1080; type: cell-based, human; details: HT1080, 72 h incubation, read-out: MTS proliferation assay IC 50 HT1080
Summary of the method: as §1

[4] = test system: Jily; assay: MTS proliferation assay, Jily; type: cell-based; details: 72 h incubation, read-out: MTS proliferation assay IC 50 Jily
Summary of the method: as §2

[5] = test system: adherent cells or suspension cells; assay: Hoechst 33342 nuclear staining (fraction of apoptotic nuclei); type: cell-based; set-up: key: 0 relating to no activity; 1 relating to weak activity comprising less than 70% of the cells; score 2 relating to strong activity comprising more than 70% of the cells
[6] = test system: Jurkat; assay: MTS proliferation assay, Jurkat; type: cell-based, human; details: 72 h incubation, read-out: MTS proliferation assay IC 50 Jurkat
Summary of the method: as §1

Compound | IC50 [4] [nM] | Hoechst 33342 nuclear staining score ([5]; H460, conc 0.01 μm) | Hoechst 33342 nuclear staining score ([5]; H460, conc 0.1 μm) | Hoechst 33342 nuclear staining score ([5]; H460, conc 1 μm) | Hoechst 33342 nuclear staining score ([5]; HeLa, conc 0.01 μm) | Hoechst 33342 nuclear staining score ([5]; HeLa, conc 0.1 μm) | Hoechst 33342 nuclear staining score ([5]; HeLa, conc 1 μm) | Hoechst 33342 nuclear staining score ([5]; Jily, conc 0.01 μm) | Hoechst 33342 nuclear staining score ([5]; Jily, conc 0.1 μm) | Hoechst 33342 nuclear staining score ([5]; Jily, conc 1 μm) | Hoechst 33342 nuclear staining score ([5]; Jurkat, conc 0.01 μm) | Hoechst 33342 nuclear staining score ([5]; Jurkat, conc 0.1 μm) | Hoechst 33342 nuclear staining score ([5]; Jurkat, conc 1 μm) | Hoechst 33342 nuclear staining score ([5]; MRC5, conc 0.01 μm) | Hoechst 33342 nuclear staining score ([5]; MRC5, conc 0.1 μm) | Hoechst 33342 nuclear staining score ([5]; MRC5, conc 1 μm) | Hoechst 33342 nuclear staining score ([5]; PBLs, conc 0.01 μm) | Hoechst 33342 nuclear staining score ([5]; PBLs, conc 0.1 μm) | Hoechst 33342 nuclear staining score ([5]; PBLs, conc 1 μm) | IC50 [1] [nM] | also measured
Nc1cc(C(=O)Cn2c(-c3nonc3N)nc3ccccc32)ccc1Cl [Example 14, 4-[1-(3-Amino-4-chlorophenacyl)-1H-benzimidazol-2-yl]-furazan-3-ylamine] | 10 to 100 | 0 | 2 (score 2 relating to strong activity comprising more than 70% of the cells) | 2 (score 2 relating to strong activity comprising more than 70% of the cells) | 0 | 1 (1 relating to weak activity comprising less than 70% of the cells) | 2 (score 2 relating to strong activity comprising more than 70% of the cells) | 0 | 2 (score 2 relating to strong activity comprising more than 70% of the cells) | 2 (score 2 relating to strong activity comprising more than 70% of the cells) | 0 | 2 (score 2 relating to strong activity comprising more than 70% of the cells) | 2 (score 2 relating to strong activity comprising more than 70% of the cells) | 0 | 1 (1 relating to weak activity comprising less than 70% of the cells) | 2 (score 2 relating to strong activity comprising more than 70% of the cells) | 0 | 0 | 0 | – | IC50 ([1]; Homo sapiens): 10 to 100 nM; IC50 ([2]; Homo sapiens): 10 to 100 nM; IC50 ([3]; Homo sapiens, HT-1080): 10 to 100 nM; IC50 ([6]; Homo sapiens): 10 to 100 nM
COCCOc1ccc(C(=O)Cn2c(-c3nonc3N)nc3ccccc32)cc1 [Example 77] | 100 to 1000 | 0 | 0 | 2 (score 2 relating to strong activity comprising more than 70% of the cells) | 0 | 0 | 2 (score 2 relating to strong activity comprising more than 70% of the cells) | 0 | 0 | 2 (score 2 relating to strong activity comprising more than 70% of the cells) | 0 | 0 | 2 (score 2 relating to strong activity comprising more than 70% of the cells) | 0 | 0 | 1 (1 relating to weak activity comprising less than 70% of the cells) | 0 | 0 | 0 | 100 to 1000 | IC50 [2]: 100 to 1000 nM; IC50 [3]: 100 to 1000 nM; IC50 [6]: 100 to 1000 nM
Nc1ccc(OCn2c(-c3nonc3N)nc3ccccc32)cc1 [Example 99] | 100 to 1000 | 0 | 0 | 0 | 0 | 0 | 0 | 0 | 0 | 1 (1 relating to weak activity comprising less than 70% of the cells) | 0 | 0 | 1 (1 relating to weak activity comprising less than 70% of the cells) | 0 | 0 | 0 | 0 | 0 | 0 | > 1000 | IC50 [2]: > 1000 nM; IC50 [3]: > 1000 nM; IC50 [6]: 100 to 1000 nM
N#CCCNc1nonc1-c1nc2ccccc2n1CC(=O)c1ccc(Br)cc1 [Example 47] | < 10 | 0 | 2 (score 2 relating to strong activity comprising more than 70% of the cells) | 2 (score 2 relating to strong activity comprising more than 70% of the cells) | 0 | 2 (score 2 relating to strong activity comprising more than 70% of the cells) | 2 (score 2 relating to strong activity comprising more than 70% of the cells) | 0 | 2 (score 2 relating to strong activity comprising more than 70% of the cells) | 2 (score 2 relating to strong activity comprising more than 70% of the cells) | 2 (score 2 relating to strong activity comprising more than 70% of the cells) | 2 (score 2 relating to strong activity comprising more than 70% of the cells) | 2 (score 2 relating to strong activity comprising more than 70% of the cells) | 0 | 2 (score 2 relating to strong activity comprising more than 70% of the cells) | 2 (score 2 relating to strong activity comprising more than 70% of the cells) | 0 | 0 | 0 | 10 to 100 | IC50 [2]: 100 to 1000 nM; IC50 [3]: 10 to 100 nM; IC50 [6]: < 10 nM
N#CCCNc1nonc1-c1nc2ccccc2n1COc1ccccc1 [Example 95] | 100 to 1000 | – | – | – | 0 | 0 | 1 (1 relating to weak activity comprising less than 70% of the cells) | 0 | 0 | 1 (1 relating to weak activity comprising less than 70% of the cells) | 0 | 0 | 2 (score 2 relating to strong activity comprising more than 70% of the cells) | 0 | 0 | 0 | 0 | 0 | 0 | 100 to 1000 | IC50 [2]: 100 to 1000 nM; IC50 [3]: 100 to 1000 nM; IC50 [6]: 100 to 1000 nM
COc1cc(C(=O)Cn2c(-c3nonc3N)nc3ccccc32)ccc1OC(C)=O [Example 75] | 100 to 1000 | 0 | 0 | 2 (score 2 relating to strong activity comprising more than 70% of the cells) | 0 | 0 | 1 (1 relating to weak activity comprising less than 70% of the cells) | 0 | 0 | 2 (score 2 relating to strong activity comprising more than 70% of the cells) | 0 | 0 | 2 (score 2 relating to strong activity comprising more than 70% of the cells) | 0 | 0 | 1 (1 relating to weak activity comprising less than 70% of the cells) | 0 | 0 | 0 | 100 to 1000 | IC50 [2]: 100 to 1000 nM; IC50 [3]: 100 to 1000 nM; IC50 [6]: 100 to 1000 nM
